According to US5594033A, “Secoaporphine compound on arrhythmia” (National Science Council, priority 1993, dated 1997):
Read-outs that look alike come from different tables or passages of the source.

How the values were obtained:
[1] = system: myocyte action potential; assay: Action potential of myocytes, single cell current clamp; format: cell-based, rat
Excerpt: (§1) Ventricular cells isolated from rats and guinea pigs were placed in a chamber mounted on an inverted microscope, the effects of the test compounds on the action potential and the membrane current were studied by single cell current clamp and voltage clamp technique.

[2] = system: delayed rectifier (IK) in guinea pig ventricular cell; assay: Delayed rectifier potassium current (IK), voltage clamp; format: cell-based; conditions: Cavia porcellus, guinea pig ventricle cell, read-out: Degree of inhibition of IK
Excerpt: as §1

[3] = system: calcium current (ICa) of rat ventricle cell; assay: Calcium inward current (ICa), voltage clamp; format: cell-based
Excerpt: as §1

[4] = system: rat right atria, left atria and right ventricular strips; assay: Contractile force and heart rate of isolated rat atria and right ventricle; conditions: n = 6, mean ± S.E.M.
Method: Method: After anesthetizing rats with pentobarbital, the heart was taken out, both the atrium and the right ventricle were separately placed in 10 ml of Tyrode solution. The spontaneous contraction of the right atrium was recorded. The contraction of the left atrium and the right ventricle was driven by stimulation at a frquency of twice per second.

[5] = system: transient outward current (Ito) in rat ventricular cell; assay: Transient outward current (Ito), voltage clamp; format: cell-based; conditions: for inhibition at 6 µM: Rattus norvegicus, read-out: Ito
Excerpt: as §1

[6] = system: sodium current (INa), sodium channel; assay: Sodium inward current (INa), voltage clamp; format: cell-based, rat; conditions: for V1/2 of potential-dependent steady state inactivation of sodium current: control -60.9 mV
Excerpt: as §1

[7] = system: guinea pig left atrium treated with 0.6 μM ouabain; assay: Ouabain induced arrhythmia in guinea pig left atria; conditions: for minimal effective concentration: Cavia porcellus, read-out: Concentration that suppressed the ouabain-induced arrhythmia
Method: The left atrium of guinea pigs was first treated with 0.6 μM of ouabain and the contractile force was monitored.

C=CCN(C)CCc1cc(O)c(OC)c2c1ccc1cc(O)c(OC)cc12 [compound 1, N-allylsecoboldine]
Prolongation of the myocyte action potential ([1]; 1 μM): prolongation of the myocyte action potential was seen | Duration of the action potential (prolonged to) ([1]; 3 μM, driven at 0.2 Hz): five | Action potential plateau ([1]; concentration not given, FIG. 4): increased it | inhibition at 1 µM [2]: 20 to 30% | inhibition at 3 µM ([2]; 3 μM): 50 to 60% | inhibition at 9 µM ([2]; 9 μM): 70 to 80% | Inhibitory effect on calcium current ([3]; 3 μM): did not show any inhibitory effect | activity at 12 µM ([3]; 12 μM, added in cumulative manner, rat ventricle cell, read-out: Calcium current (ICa), % of control): 71% | inhibition at 12 µM ([3]; Rattus norvegicus, 0.1 h, 12 μM, non-treated cell retained 79% at 6 minutes, read-out: Actual degree of inhibition in calcium current, corrected for spontaneous rundown): 9% | activity at 9 µM ([4]; left atria driven at 2 Hz, read-out: Contractile tension (%)): 126 ± 6.3% | activity at 9 µM ([4]; right atria, spontaneous beating rate, read-out: H. R. (%)): 58.5 ± 3.4% | activity at 9 µM ([4]; right atria, spontaneous contraction, read-out: Contractile tension (%)): 164 ± 14% | activity at 9 µM ([4]; right ventricle strips driven at 2 Hz, read-out: Contractile tension (%)): 126 ± 7.3% | Shift of the potential-dependent inactivation curve of Ito ([5]; FIG. 6, 0.6 μM): to the right | V1/2 of potential-dependent steady state inactivation of sodium current ([6]; 3 μM): -70.8 mV | V1/2 of potential-dependent steady state inactivation of sodium current ([6]; 9 μM): -85.9 mV | Sodium current, % of control ([6]; 0.9 to 1.2 μM, guinea pig atrial cell or rat ventricle cell): 25 % of control

C=CCN(C)CCc1cc(O)c(OC)c2c1ccc1cc(OC)c(OC)cc12 [compound 3, N-allylsecopredicentrine]
minimal effective concentration [7]: 30 µM

C=CCN(C)CCc1cc(OC)c(OC)c2c1ccc1cc(OC)c(OC)cc12 [compound 4, N-allylsecoglaucine]
Effect on the myocyte action potential ([1]; compared with N-allylsecoboldine): very similar effect on the myocyte action potential as N-allylsecoboldine | Arrhythmia induced by Ouabain: effect on rhythm ([7]; FIG. 12, ouabain 0.6 μM): conversion to normal paced rhythm

COc1cc2c(ccc3c(CCN(C)Cc4ccccc4)cc(O)c(OC)c32)cc1O [compound 5, N-benzylsecoboldine]
inhibition at 1 µM [2]: 30% | Inhibitory effect on transient outward current (Ito) versus quinidine ([5]; 3 μM, rat ventricular cell): more profound inhibitory effect

COc1cc2ccc3c(CCN(C)C)cc(OC)c(OC)c3c2cc1OC [compound 8, N-methylsecoglaucine]
inhibition at 6 µM [5]: 70%

COc1cc2ccc3c(CCN(C)C)cc(O)c(OC)c3c2cc1OC [compound 9, N-methylsecopredicentrine]
inhibition at 6 µM [5]: 60%

COc1cc2c(ccc3c(CCN(C)C#N)cc(O)c(OC)c32)cc1O [compound 26, N-cyanosecoboldine]
inhibition at 6 µM [5]: 80%

CCN(CC)CC(=O)Nc1c(C)cccc1C [lidocaine, reference compound]
minimal effective concentration ([7]; guinea pig atrium, 0.6 μM ouabain): ≥ 30 µM

C=C[C@H]1C[N@@]2CC[C@H]1C[C@@H]2[C@@H](O)c1ccnc2ccc(OC)cc12 [quinidine, reference compound]
Action potential plateau ([1]; 30 MM): decreased action potential plateau | inhibition at 3 µM ([5]; 3 μM, rat ventricular cell, read-out: Reduction of Ito): ~60%
